Reference: ChEMBL document CHEMBL3352569, “Design, synthesis and structure-activity relationship studies of novel sirtuin 2 (SIRT2) inhibitors with a benzamide skeleton” (Bioorg Med Chem, 2015)

Assays:
[1] = target: T1, NAD-dependent protein deacetylase sirtuin-2 (Homo sapiens) (UniProt Q8IXJ6); assay: Inhibition of GST-tagged human recombinant SIRT2 (34 to 356 residues) expressed in Escherichia coli BL21 at 50 uM using Fluor de Lys-SIRT as substrate incubated for 60 mins prior to substrate addition measured after 45 mins by fluorimetric analysis
T1 sequence (whole entry): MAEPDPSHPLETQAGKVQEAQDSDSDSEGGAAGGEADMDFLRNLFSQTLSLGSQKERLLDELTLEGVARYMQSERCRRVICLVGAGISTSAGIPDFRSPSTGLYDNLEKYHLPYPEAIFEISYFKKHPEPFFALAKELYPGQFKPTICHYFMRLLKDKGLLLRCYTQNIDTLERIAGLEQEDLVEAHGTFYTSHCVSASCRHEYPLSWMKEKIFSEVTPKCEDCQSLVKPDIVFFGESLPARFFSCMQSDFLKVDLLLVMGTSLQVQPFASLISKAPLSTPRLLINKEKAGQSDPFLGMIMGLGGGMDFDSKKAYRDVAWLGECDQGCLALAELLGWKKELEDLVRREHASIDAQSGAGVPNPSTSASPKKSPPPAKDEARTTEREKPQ

[2] = target: T2, NAD-dependent protein deacetylase sirtuin-2 (Homo sapiens, UniProt Q8IXJ6); assay: Inhibition of GST-tagged human recombinant SIRT2 (34 to 356 residues) expressed in Escherichia coli BL21 using Fluor de Lys-SIRT as substrate incubated for 60 mins prior to substrate addition measured after 45 mins by fluorimetric analysis
T2 sequence (Q8IXJ6 whole entry): T1 sequence (whole entry)

[3] = target: T1, NAD-dependent protein deacetylase sirtuin-2 (Homo sapiens); assay: Inhibition of GST-tagged human recombinant SIRT2 (34 to 356 residues) expressed in Escherichia coli BL21 at 10 uM using Fluor de Lys-SIRT as substrate incubated for 60 mins prior to substrate addition measured after 45 mins by fluorimetric analysis
[4] = target: T3, NAD-dependent protein deacetylase sirtuin-1 (Homo sapiens, UniProt Q96EB6); assay: Inhibition of human SIRT1
T3 sequence (Q96EB6 whole entry): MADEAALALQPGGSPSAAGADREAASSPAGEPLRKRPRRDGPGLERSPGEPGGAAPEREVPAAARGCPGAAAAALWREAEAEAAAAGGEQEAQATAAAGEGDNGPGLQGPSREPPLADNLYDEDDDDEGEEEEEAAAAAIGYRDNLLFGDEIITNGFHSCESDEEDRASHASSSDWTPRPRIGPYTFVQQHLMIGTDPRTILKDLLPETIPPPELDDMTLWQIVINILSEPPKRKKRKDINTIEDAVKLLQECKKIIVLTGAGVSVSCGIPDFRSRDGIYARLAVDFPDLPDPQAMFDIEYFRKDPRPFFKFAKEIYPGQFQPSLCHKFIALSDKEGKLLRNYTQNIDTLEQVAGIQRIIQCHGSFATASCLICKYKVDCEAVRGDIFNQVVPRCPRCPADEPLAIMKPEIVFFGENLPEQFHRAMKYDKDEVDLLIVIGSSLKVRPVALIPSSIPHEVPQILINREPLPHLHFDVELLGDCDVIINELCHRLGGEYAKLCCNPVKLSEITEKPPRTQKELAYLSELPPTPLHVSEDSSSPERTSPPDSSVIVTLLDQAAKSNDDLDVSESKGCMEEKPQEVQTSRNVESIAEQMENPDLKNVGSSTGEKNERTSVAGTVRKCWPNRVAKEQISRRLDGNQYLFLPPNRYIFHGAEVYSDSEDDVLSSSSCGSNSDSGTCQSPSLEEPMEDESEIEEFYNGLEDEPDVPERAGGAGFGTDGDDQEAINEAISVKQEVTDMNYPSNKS

[5] = target: T4, NAD-dependent protein deacetylase sirtuin-3, mitochondrial (Homo sapiens, UniProt Q9NTG7); assay: Inhibition of human SIRT3
T4 sequence (Q9NTG7 whole entry): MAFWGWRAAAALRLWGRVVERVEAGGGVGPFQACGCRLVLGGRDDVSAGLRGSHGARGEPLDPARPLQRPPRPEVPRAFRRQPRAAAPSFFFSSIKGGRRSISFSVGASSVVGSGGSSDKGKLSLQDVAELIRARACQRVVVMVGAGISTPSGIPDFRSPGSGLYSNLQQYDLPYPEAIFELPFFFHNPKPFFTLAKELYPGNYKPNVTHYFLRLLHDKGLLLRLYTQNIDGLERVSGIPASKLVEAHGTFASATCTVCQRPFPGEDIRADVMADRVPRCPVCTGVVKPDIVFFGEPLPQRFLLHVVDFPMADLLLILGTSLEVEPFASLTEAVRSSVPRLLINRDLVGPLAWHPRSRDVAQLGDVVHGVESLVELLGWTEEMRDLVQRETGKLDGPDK

[6] = target: T4, NAD-dependent protein deacetylase sirtuin-3, mitochondrial; assay: Inhibition of human recombinant SIRT3 using Fluor de Lys-SIRT as substrate incubated for 60 mins prior to substrate addition measured after 45 mins by fluorimetric analysis
[7] = target: T3, NAD-dependent protein deacetylase sirtuin-1; assay: Inhibition of human recombinant SIRT1 using Fluor de Lys-SIRT as substrate incubated for 60 mins prior to substrate addition measured after 45 mins by fluorimetric analysis
[8] = target: T1, NAD-dependent protein deacetylase sirtuin-2 (Homo sapiens); conditions: 25 uM
Description: Inhibition of human recombinant SIRT2 at 25 uM

Row | SMILES | inhibition [1] | IC50 [2] | inhibition [3] | further results
1 | COc1ccccc1NC(=O)c1cccc(-c2ccc3ccccc3c2)c1 | 89% | 11 µM | 51% | 
2 | O=C(Nc1cccc(Br)c1)c1cccc(S(=O)(=O)N2CCCCCC2)c1 |  |  |  | IC50 [4]: > 50 µM; IC50 [5]: > 50 µM
3 | Cc1cccc(C(=O)Nc2cccc(NC(=O)c3ccccc3Br)c2)c1 | 24% |  | 18% | 
4 | COc1cccc(NC(=O)c2cccc(-c3ccc4ccccc4c3)c2)c1 | 66% |  | 29% | 
5 | O=C(Nc1cccc(NC(=O)c2ccccc2Br)c1)c1ccccc1 | 28% |  | 8% | 
6 | O=C(Nc1ccncc1)c1cccc(-c2ccc3ccccc3c2)c1 |  | 16 µM |  | 
7 | Nc1ccccc1NC(=O)c1cccc(-c2ccc3ccccc3c2)c1 | 29% |  | 22% | 
8 | Cc1ccccc1C(=O)Nc1cccc(NC(=O)c2ccccc2Br)c1 | 0% |  | 1% | 
9 | O=C(Nc1cccnn1)c1cccc(-c2ccc3ccccc3c2)c1 |  | 0.9 µM |  | 
10 | O=C(Nc1cccc(-c2ccc3ccccc3c2)c1)c1cccc(Br)c1 | 43% |  | 19% | 
11 | O=C(Nc1cccc(Br)c1)c1cccc(-c2ccc3ccccc3c2)c1 | 46% |  | 23% | 
12 | O=C(Nc1cccc(NC(=O)c2cccc(Br)c2)c1)c1cc(Cl)cc(Cl)c1 | 10% |  | 0% | 
13 | COc1cccc(C(=O)Nc2cccc(-c3ccc4ccccc4c3)c2)c1 | 44% |  | 8% | 
14 | O=C(Nc1cnccc1Br)c1cccc(-c2ccc3ccccc3c2)c1 |  | 0.6 µM |  | IC50 [6]: > 100 µM; IC50 [7]: > 100 µM
15 | COc1ccc(C(=O)Nc2cccc(NC(=O)c3cccc(Br)c3)c2)cc1 | 0% |  | 4% | 
16 | CC(C(=O)Nc1cccc(/N=C/c2c(O)ccc3ccccc23)c1)c1ccccc1 (centres undefined) |  |  |  | inhibition [8]: 80%
17 | O=C(Nc1nc[nH]n1)c1cccc(-c2ccc3ccccc3c2)c1 |  | 57 µM |  | 
18 | O=C(Nc1ccccc1)c1cccc(-c2ccc3ccccc3c2)c1 | 14% |  | 21% | 
19 | O=C(Nc1cccc(NC(=O)c2cccc(Br)c2)c1)c1cccc(Br)c1 | 12% |  | 7% | 
20 | O=C(Nc1cccc(NC(=O)c2ccccc2Br)c1)c1ccccc1Br | 49% |  | 3% | 

Row | SMILES | inhibition [1] | IC50 [2] | inhibition [3] | further results
21 | O=C(Nc1ccccc1Br)c1cccc(-c2ccc3ccccc3c2)c1 | 95% | 5.3 µM | 64% | 
22 | O=C(Nc1cc[nH]n1)c1cccc(-c2ccc3ccccc3c2)c1 |  | 42 µM |  | 
23 | O=C(Nc1cccc(NC(=O)c2ccccc2Br)c1)c1cccc(Br)c1 | 19% |  | 0% | 
24 | N#C/C(=C\c1ccc(-c2cc(Cl)ccc2Cl)o1)C(=O)Nc1cccc2ncccc12 |  |  |  | IC50 [4]: > 50 µM
25 | O=C(Nc1cccc(-c2ccc3ccccc3c2)c1)c1ccccc1Br | 56% |  | 39% | 
26 | O=C(Nc1cccc(NC(=O)c2cc(C(F)(F)F)cc(C(F)(F)F)c2)c1)c1cccc(Br)c1 | 12% |  | 3% | 
27 | O=C(Nc1cccnc1)c1cccc(-c2ccc3ccccc3c2)c1 |  | 3.3 µM |  | 
28 | COc1ccc(C(=O)Nc2cccc(NC(=O)c3ccccc3Br)c2)cc1 | 31% |  | 10% | 
29 | O=C(Nc1cccc(NC(=O)c2ccccc2)c1)c1ccccc1 | 10% |  | 3% | 
30 | O=C(Nc1ccccn1)c1cccc(-c2ccc3ccccc3c2)c1 |  | 22 µM |  | 
31 | O=C(Nc1nccs1)c1cccc(-c2ccc3ccccc3c2)c1 |  | 12 µM |  | 
32 | COc1cccc(C(=O)Nc2cccc(NC(=O)c3ccccc3Br)c2)c1 | 19% |  | 4% | 
33 | O=C(Nc1ccnnc1)c1cccc(-c2ccc3ccccc3c2)c1 |  | 6.3 µM |  | 
34 | O=C(Nc1ccccc1[N+](=O)[O-])c1cccc(-c2ccc3ccccc3c2)c1 | 76% |  | 30% | 
35 | O=C(Nc1cnccn1)c1cccc(-c2ccc3ccccc3c2)c1 |  | 6.2 µM |  | 
36 | O=C(Nc1ncccn1)c1cccc(-c2ccc3ccccc3c2)c1 |  | 13 µM |  | 
37 | COc1ccccc1C(=O)Nc1cccc(NC(=O)c2cccc(Br)c2)c1 | 39% |  | 11% | 
38 | COc1ccccc1C(=O)Nc1cccc(-c2ccc3ccccc3c2)c1 | 47% |  | 10% | 
39 | COc1ccccc1C(=O)Nc1cccc(NC(=O)c2ccccc2Br)c1 | 28% |  | 10% | 
